Data on 18 sequences can be found in patent publication US20250154228A1, “HIGH-TRANSDERMAL-ABSORPTION PEPTIDE AND RECOMBINANT COLLAGEN CONSTRUCTED BY MEANS OF REPETITIONS OF PEPTIDE” (XI'AN GIANT BIOGENE TECHNOLOGY CO., LTD, priority 2022, published 2025).

Ends that are not written are not given here.

This data set is described as follows: 24 h transdermal penetration through mouse skin in vitro, single-chamber diffusion cell, BCA determination. Format: in vitro ADME, Kunming mice. Particulars: collagen peptides, 5 mg/ml in 0.9% NaCl, diffusion area 2.0 cm^2, 37.5° C., receiving solution after 24 h, BCA kit. The method, then:
10 Kunming mice of 20 to 22 g with half male and half […] were used in the experiment. After the mice were killed, the hairs on the abdomen were removed. Then the skin on the hair-removed area was peeled off, stripped of fat and grain, and rinsed repeatedly with distilled water. After being washed, the mouse skins were rinsed with normal saline, then treated with 10% glycerol, and stored at −20° C. for use (used up within 7 days).
Single-chamber diffusion cell: The effective diffusion area of the diffusion cell is 2.0 cm^2, the volume of the receiving cell is 14 ml, the length of the custom-made stirrer is 1.4 cm, and the receiving liquid is 0.9% NaCl solution.
The stored mouse skin was taken out, thawed, washed with normal saline, and sandwiched between the receiving chamber and the supplying chamber, with the medicated side facing the supplying chamber and the skin side facing the receiving chamber. The temperature of the water bath system was adjusted to 37.5° C., and the stirring speed was adjusted to 100 rpm/min. 0.9% NaCl solution pre-warmed at 37° C. was added to the receiving chamber and the air bubbles were exhausted. In order to reduce the interference, the inner surface of the mouse skin was firstly contacted with the receiving solution without medication and all the receiving solution was replaced. Then the 18 collagen peptides synthesized were prepared into 5 mg/ml solutions using 0.9% NaCl respectively, which were injected into the supplying chamber and firmly adhere to the mouse skin respectively. After 24 h, part of the receiving solution was absorbed with a syringe as the sample solution to determine the transdermal amount of collagen peptide.
The BCA kit method was used to determine the polypeptide content in the sample solution. […]
Consider GERGFPGLPGPSGEPGKQGPS [compound 16], for which the “24 h penetration amount” value turned out to be 3034.99 µg.
Take GERGPPGPQGARGLPGTAGLP [compound 2]: the “24 h penetration amount” value amounted to 3697.14 µg.
Regarding GSPGENGAPGQMGPRGLPGER [compound 3], the “24 h penetration amount” value is 3213.66 µg.
In the case of GERGRPGAPGPAGARGNDGAT [compound 4], the “24 h penetration amount” value amounted to 3124.48 µg.
As to GLPGPSGEPGKQGPSGASGER [compound 17], the “24 h penetration amount” value turned out to be 3498.56 µg.
As for GVMGFPGPKGAAGEPGKAGER [compound 7], the “24 h penetration amount” value came out at 3389.09 µg.
GERGPPGPMGPPGLAGPPGES [compound 18]: the “24 h penetration amount” value came to 3308.22 µg.
Turning to GPQGIAGQRGVVGLPGQRGER [compound 15], the “24 h penetration amount” value amounted to 3111.47 µg.
In the case of GERGAAGLPGPKGDRGDAGPK [compound 14], the “24 h penetration amount” value was 3745.15 µg.
GERGVPGPPGAVGPAGKDGEA [compound 8]: the “24 h penetration amount” value was found to be 3113.64 µg.
For GEQGVPGDLGAPGPSGARGER [compound 9] the value was 3341.78 µg; for GERGGPGSRGFPGADGVAGPK [compound 6], 3253.23 µg.
The result for GKRGARGEPGPTGLPGPPGER [compound 5] reads 3023.05 µg; that for GPPGKNGDDGEAGKPGRPGER [compound 1], 3041.21 µg.
On to GDLGAPGPSGARGERGFPGER [compound 11], for which the “24 h penetration amount” value came to 2994.13 µg.
Turning to GERGFPGERGVQGPPGPAGPR [compound 10], the “24 h penetration amount” value stood at 2992.77 µg.
For GERGVQGPPGPAGPRGANGAP [compound 12], the “24 h penetration amount” value stood at 3103.23 µg.
Take GAPGAPGSQGAPGLQGMPGER [compound 13]: the “24 h penetration amount” value was determined as 4048.04 µg.
